{"source": "patent US8211646B1", "about": "“Methods of treating ovarian cancer by modulating SnoN” (University of South Florida, priority 2008, dated 2012)", "type_in_all_cases": "cell-based", "key": {"[1]": {"test_system": "EVI1 forms (MDS1/EVI1, EVI1, EVI1^Del190-515)", "conditions": "combination with As2O3; HEY, OVCA429", "procedure": "(§1) Proteins were resolved on an 8%, 12%, or 15% SDS-PAGE gel (as appropriate) and electrophoretically transferred to polyvinyldifluoride (PVDF) membranes. After blocking with 5% (w/v) milk in TBST (Tris-Buffered Saline containing 0.1% Tween-20) for one hour at room temperature, membranes were incubated with primary antibodies (at appropriate dilution) overnight at 4° C., followed by extensive washing and incubation for 1 hour with the appropriate horseradish peroxidase-conjugated secondary antibodies (BioRad, Hercules, Calif.). Blots were washed extensively. A rabbit polyclonal EVI1 antibody was obtained (1:3000 dilution, St. Jude's Children's Hospital, Memphis, Tenn.). SnoN rabbit polyclonal (1:1000 dilution), PML, and p21 SMURF2 rabbit polyclonal (1:500 dilution), MRP1 mouse monoclonal (1:500 dilution) and GAPDH mouse monoclonal (1:250 dilution) antibodies were obtained from Santa Cruz Biotechnology (Santa Cruz, Calif.). TGFβRII rabbit polyclonal (1:1000 dilution) antibody was obtained from Strategic Diagnostics (Newark, Del.). Smad2/3 rabbit polyclonal (1:1000 dilution), Beclin-1 rabbit polyclonal (1:1000 dilution), AKT rabbit polyclonal (1:1000 dilution), TAK1 rabbit polyclonal (1:1000 dilution), PARP rabbit polyclonal (1:1000 dilution), Beclin-1 rabbit polyclonal (1:1000 dilution), caspase-3 rabbit polyclonal (1:1000) which detects the pro-caspase form, and ATG5 rabbit polyclonal (1:1000 dilution), LC3-II rabbit polyclonal (1:1000 dilution) antibodies were obtained from Cell Signaling Technology (Danvers, Mass.). The HSP27 mouse monoclonal (1:1000 dilution) antibody was obtained from Stressgen (Ann Arbor, Mich.). Blots were developed using chemiluminescence substrates (Amersham Piscataway, N.J. or BioRad, Hercules, Calif.). Monoclonal PAI-1 antibody was obtained from BD Pharmingen. PSMAD2, total SMAD2/3, p-ERK, p-AKT, and total AKT antibodies were obtained from Cell Signaling Technology. A monoclonal antibody against Arkadia was obtained from Abnova (Taiwan).\n(§2) Densitometric analysis was performed using the HP Scanjet 5590 and the Image J program (Image Processing and Analysis in Java, NIH Image Software). Bands were selected and the intensity values were normalized to those for GAPDH. The values are presented as fold-changes relative to control siRNA treated cells.\n(§3) The clinical inhibitors As2O3, geldanamycin (17-AAG) (dissolved in dimethylsulfoxide [DMSO]), and MG132 (dissolved in DMSO) were obtained from Sigma-Aldrich (St. Louis, Mo.), Fisher Scientific (Pittsburgh, Pa.), and Alexis Biochemicals (Farmingdale, N.Y.), respectively. N-acetyl-L-cysteine (NAC; dissolved in media) and Bortezomib (PS-341; dissolved in DMSO) were obtained from Fisher Scientific. 3-Methyladenine (3-MA; dissolved in media) was obtained from MP Biomedicals (Solon, Ohio). Tiron (4,5-Dihydroxy-1,3-benzenedisulfonic acid, dissolved in media) was obtained from Fisher Scientific. zVAD-fmk (dissolved in DMSO) and bafilomycin A (dissolved in DMSO) was obtained from Axxora LLC (San Diego, Calif.). Bovine catalase was obtained from Sigma-Aldrich. HBED and Mn TBAP was obtained from ENZO Life Sciences (Farmingdale, N.Y.). Ovarian cells were plated in 6-well plates at 250,000 cells per well and grown in complete medium. The following day, the cells were treated with 5 μM MG132, As2O3 (between 2-50 μM), 17-AAG (between 2-50 μM), NAC (Fisher Scientific, between 25 μM to 1 mM), Tiron (between 25 μM to 1 mM), 3-MA (0.1 mM to 10 mM), or zVAD-fmk (25 μM to 100 μM). For control cells, DMSO (a final concentration of <0.5%) was added to compare appropriately to drugs dissolved in DMSO. After the appropriate incubation time (6 or 18 hours), cell lysates were collected, protein quantified, and SDS-PAGE/western analysis was performed. In addition, for selected studies, RNA was isolated, quantified, and used for qPCR analysis."}, "[2]": {"test_system": "TAK1, SMAD2/3, TGFβRII, AKT, phospho-SMAD2", "assay": "Western analysis of other TGFβ signaling mediators", "procedure": "as §1, §2, §3"}, "EVI1 and TGFβRII RNA": {"test_system": "EVI1 and TGFβRII RNA", "assay": "qPCR of EVI1 and TGFβRII RNA levels", "conditions": "5 μM MG132, 18 hours", "procedure": "RNA was isolated using the RNeasy Mini Kit (Qiagen, Valencia, Calif.) from normal, benign, stage I-IV ovarian patient samples and quantitative PCR was performed. A one-step RT-PCR Taqman master mix from Applied Biosystems (Foster City, Calif.) and primers for genes in the 3q26.2 amplicon were obtained using Genebank sequences as well as from Assays on Demand (Hs00180524_m1 (SnoN/SkiL)), with the following primers and probe sets.\nEVI1 Exon III—(detects both EVI1 and MDS1/EVI1):\nPrimers/probe sequences for SnoN (Hs00180524_m1), TGFβRII (Hs00234253_m1), and LC3 (Hs00261291_m1) were obtained from Applied Biosystems (Assays by Design).\nmRNA levels were determined using the One-Step-Plus Applied Biosystems Detection System or ABI PRISM 7700 Sequence Detection System using β-actin as a reference. […] 95° C. for 15 s followed by 60° C. for 1 min Using the correlative method, RNA-fold change in expression was calculated as Ct of gene—Ct of β-actin to generate ΔCt from which ΔCt of the normal sample was subtracted. […]\nThe clinical inhibitors As2O3, geldanamycin (17-AAG) (dissolved in dimethylsulfoxide [DMSO]), and MG132 (dissolved in DMSO) were obtained from Sigma-Aldrich (St. Louis, Mo.), Fisher Scientific (Pittsburgh, Pa.), and Alexis Biochemicals (Farmingdale, N.Y.), respectively. […] In addition, for selected studies, RNA was isolated, quantified, and used for qPCR analysis."}, "SnoN": {"test_system": "SnoN", "assay": "Western analysis of SnoN protein levels", "design": "SnoN basal protein levels: dose or concentration left out as unconfirmed", "procedure": "as §1, §2\nas §3, with “The following day, the cells were treated with 5 μM MG132, As2O3 (between 2-50 μM), 17-AAG (between 2-50 μM), NAC (Fisher Scientific, between 25 μM to 1 mM), Tiron (between 25 μM to 1 mM), 3-MA (0.1 mM to 10 mM), or zVAD-fmk (25 μM to 100 μM).” left out"}}, "note": "Peptide text beside a SMILES is read from it. * marks the point of attachment. Cbz = O=C(OCc1ccccc1)*", "data": [{"smiles": "CC(C)C[C@@H](C=O)NC(=O)[C@H](CC(C)C)NC(=O)[C@H](CC(C)C)NC(=O)OCc1ccccc1", "note": "[MG132] (Cbz-Leu-Leu-Leu-aldehyde)", "values": [{"measurement": "EVI1 protein in As2O3-treated cells with added proteosome inhibitor", "setting": "[1]", "value": "recovered"}, {"measurement": "AKT, SMAD2/3, and TGFβRII protein levels", "setting": "[2]; MG132 at 18 hours", "value": "significantly decreased"}, {"measurement": "TGFβRII protein in drug-treated cells with added proteosome inhibitor", "setting": "[2]; combination with As2O3 (MG132: 6 hour drug treatment)", "value": "recovered"}, {"measurement": "EVI1 and TGFβRII RNA levels", "setting": "EVI1 and TGFβRII RNA", "value": "markedly reduce"}, {"measurement": "SnoN basal protein levels", "setting": "SnoN; MG132, HEY and OVCA429, threshold between 3 and 6 h", "value": "marked increase"}, {"measurement": "SnoN protein in drug-treated cells with added proteosome inhibitor", "setting": "SnoN; combination with As2O3", "value": "further increased"}]}]}
